According to patent US6294542A, “Pyrimidinone compounds, pharmaceutical compositions containing the compounds and the process for preparing the same” (Boryung Pharmaceutical Co. Ltd., priority 1998, dated 2001):

Key:
[1] = test system: Angiotensin II-induced pressor response; experiment: In vivo Angiotensin II antagonism in conscious normotensive rats; conditions: Rattus norvegicus, po; P.O.; conscious normotensive male SD rats; Angiotensin II 0.1 μg/kg; read-out: ID50 (dose of test compound necessary to produce 50% inhibition of Angiotensin II-induced pressor response)
Procedure: The antagonistic activity of the compound (I) against the angiotensin II, which is prepared by the process according to a preferred embodiment of the invention, was evaluated with relation to rats.
In vivo Angiotensin II antagonism in conscious normotensive rats.
Male SD rats (Charles River Japan, 9 weeks, 300-350 g) were anesthetized with pentobarbital at 50 mg/kg i.p. Both the left femoral artery and the right femoral vein were cannulated. A heparin-filled catheter (50U/ml) was tunneled subcutaneously (s.c.) to the dorsal side of the neck and exteriorized.
Rats were permitted to recover overnight from anesthesia and allowed free access to water, but food was withheld.
The next day, the femoral artery catheter was connected to a pressure transducer (COBE 041-500-508, USA) coupled to a polygraph (GRASS Model 7, USA) to monitor arterial blood pressure. After an appropriate equilibration period, Angiotensin II (0.1 μg/kg) was injected in the femoral vein three times during the control period.
Test compounds were then administered orally (p.o.) at a constant volume of 2 ml/kg.
Angiotensin II challenges were repeated at set times thereafter.
ID50 values, the dose of test compound necessary to produce 50% inhibition of Angiotensin II-induced pressor response, were calculated from peak inhibition percentage with several doses of test compound.

[2] = Acute Toxicity Test (oral, mice); format: in vivo; conditions: for LD50: mouse, in vivo, po
Procedure: Respective 5 mice of ICR system, which was distributed from Korean Laboratory Animal Center, were bred in a polycarbonate breeding box at a breeding environment of 23±1° C. of temperature, 55±5% of humidity, 10-15 times/hr of evacuation, 12 hr cycle of fluorescent light luminance, and 150-300 Lux of illumination.
After observing the mice for one week of acclimation breeding period, only normal mice were selected for laboratory work. The mice were fed with sterilized feed for laboratory animals, which was made by Cheil Jedang Co.,Ltd, and supplied with purified water to drink.
During the acclimation period, mice, who were evaluated to be healthy, were weighed and divided into groups randomly. Individual identification of laboratory animals was performed by indumentum pigment display and tag display per breeding box.
Establishment of dose was carried out according to a result of preliminary test in such a manner that a maximum dose group for both male and female was set to 5000 mg/kg and azeotropy was set to 1.71. Medium-high, medium and medium-low dose groups were respectively set as follows and a control group was administrated with physiological saline for injection.
Before administration of testing substances, body weight of the laboratory animals was in the range of 24-28 g in case of male and in the range of 19-28 g in case of female, respectively. The laboratory animals were aged 6 weeks.
Preparation of the testing substances was dissolved in physiological saline before administration. Dose was calculated according to the body weight which was measured before administration and dispensed by oral administration to a mouse who was in abrosia for 18 hours before testing.
Observation of clinical symptom such as general change, toxic symptom and mortality was performed for all laboratory animals once an hour during 6 hours after administration on the very administration day, and once a day from the next day to 14th day of administration.
Administration group, who was administered with testing substances, and the control group were weighed on the administration day, first, third, seventh, tenth and fourteenth days from the administration at a predetermined time for all animals who were alive.
After finish of the test, all animals were slightly anesthetized with ether and bleeding-killed. Appearance and internal organs of the animals were examined with naked eye carefully. Animals, who died during the text, were examined in the same manner.

SMILES: CCCCc1nc(C)c(CC(=S)N2CCCC2)c(=O)n1Cc1ccc(-c2ccccc2-c2nnn[nH]2)cc1 [Compound 8, 2-n-butyl-5-pyrrolidinothiocarbonylmethyl-6-methyl-3-[[2'-(1H-tetrazol-5-yl)-biphenyl-4-yl]methyl]-pyrimidine-4(3H)-one]
- ED50 [1]: 0.93 mg/kg
- Final mortality (death number/total number) ([2]; female, 1000 mg/kg oral): 0/5
- Mortality (death number/survival number) ([2]; female, 1000 mg/kg oral, day 0): 0/5
- Mortality (death number/survival number) ([2]; female, 1000 mg/kg oral, day 1): 0/5
- Mortality (death number/survival number) ([2]; female, 1000 mg/kg oral, day 2): 0/5
- Mortality (death number/survival number) ([2]; female, 1000 mg/kg oral, day 3): 0/5
- Mortality (death number/survival number) ([2]; female, 1000 mg/kg oral, day 7): 0/5
- Mortality (death number/survival number) ([2]; female, 1000 mg/kg oral, day 14): 0/5
- Final mortality (death number/total number) ([2]; female, 1710 mg/kg oral): 0/5
- Mortality (death number/survival number) ([2]; female, 1710 mg/kg oral, day 0): 0/5
- Mortality (death number/survival number) ([2]; female, 1710 mg/kg oral, day 1): 0/5
- Mortality (death number/survival number) ([2]; female, 1710 mg/kg oral, day 2): 0/5
- Mortality (death number/survival number) ([2]; female, 1710 mg/kg oral, day 3): 0/5
- Mortality (death number/survival number) ([2]; female, 1710 mg/kg oral, day 7): 0/5
- Mortality (death number/survival number) ([2]; female, 1710 mg/kg oral, day 14): 0/5
- Final mortality (death number/total number) ([2]; female, 2924 mg/kg oral): 2/5
- Mortality (death number/survival number) ([2]; female, 2924 mg/kg oral, day 0): 2/5
- Mortality (death number/survival number) ([2]; female, 2924 mg/kg oral, day 1): 0/3
- Mortality (death number/survival number) ([2]; female, 2924 mg/kg oral, day 2): 0/3
- Mortality (death number/survival number) ([2]; female, 2924 mg/kg oral, day 3): 0/3
- Mortality (death number/survival number) ([2]; female, 2924 mg/kg oral, day 7): 0/3
- Mortality (death number/survival number) ([2]; female, 2924 mg/kg oral, day 14): 0/3
- Final mortality (death number/total number) ([2]; female, 5000 mg/kg oral): 4/5
- Mortality (death number/survival number) ([2]; female, 5000 mg/kg oral, day 0): 4/5
- Mortality (death number/survival number) ([2]; female, 5000 mg/kg oral, day 1): 0/1
- Mortality (death number/survival number) ([2]; female, 5000 mg/kg oral, day 2): 0/1
- Mortality (death number/survival number) ([2]; female, 5000 mg/kg oral, day 3): 0/1
- Mortality (death number/survival number) ([2]; female, 5000 mg/kg oral, day 7): 0/1
- Mortality (death number/survival number) ([2]; female, 5000 mg/kg oral, day 14): 0/1
- Final mortality (death number/total number) ([2]; male, 1000 mg/kg oral): 0/5
- Mortality (death number/survival number) ([2]; male, 1000 mg/kg oral, day 0): 0/5
- Mortality (death number/survival number) ([2]; male, 1000 mg/kg oral, day 1): 0/5
- Mortality (death number/survival number) ([2]; male, 1000 mg/kg oral, day 2): 0/5
- Mortality (death number/survival number) ([2]; male, 1000 mg/kg oral, day 3): 0/5
- Mortality (death number/survival number) ([2]; male, 1000 mg/kg oral, day 7): 0/5
- Mortality (death number/survival number) ([2]; male, 1000 mg/kg oral, day 14): 0/5
- Final mortality (death number/total number) ([2]; male, 1710 mg/kg oral): 2/5
- Mortality (death number/survival number) ([2]; male, 1710 mg/kg oral, day 0): 2/5
- Mortality (death number/survival number) ([2]; male, 1710 mg/kg oral, day 1): 0/3
- Mortality (death number/survival number) ([2]; male, 1710 mg/kg oral, day 2): 0/3
- Mortality (death number/survival number) ([2]; male, 1710 mg/kg oral, day 3): 0/3
- Mortality (death number/survival number) ([2]; male, 1710 mg/kg oral, day 7): 0/3
- Mortality (death number/survival number) ([2]; male, 1710 mg/kg oral, day 14): 0/3
- Final mortality (death number/total number) ([2]; male, 2924 mg/kg oral): 3/5
- Mortality (death number/survival number) ([2]; male, 2924 mg/kg oral, day 0): 3/5
- Mortality (death number/survival number) ([2]; male, 2924 mg/kg oral, day 1): 0/2
- Mortality (death number/survival number) ([2]; male, 2924 mg/kg oral, day 2): 0/2
- Mortality (death number/survival number) ([2]; male, 2924 mg/kg oral, day 3): 0/2
- Mortality (death number/survival number) ([2]; male, 2924 mg/kg oral, day 7): 0/2
- Mortality (death number/survival number) ([2]; male, 2924 mg/kg oral, day 14): 0/2
- Final mortality (death number/total number) ([2]; male, 5000 mg/kg oral): 4/5
- Mortality (death number/survival number) ([2]; male, 5000 mg/kg oral, day 0): 2/5
- Mortality (death number/survival number) ([2]; male, 5000 mg/kg oral, day 1): 1/3
- Mortality (death number/survival number) ([2]; male, 5000 mg/kg oral, day 2): 0/2
- Mortality (death number/survival number) ([2]; male, 5000 mg/kg oral, day 3): 0/2
- Mortality (death number/survival number) ([2]; male, 5000 mg/kg oral, day 7): 1/2
- Mortality (death number/survival number) ([2]; male, 5000 mg/kg oral, day 14): 0/1
- LD50 ([2]; female mice): 4060 mg/kg
- LD50 ([2]; male mice): 3170 mg/kg
